Patent publication US20250129021A1, “SMALL MOLECULE PROTEIN SYNTHESIS MODULATORS” (Interdict Bio, Inc., priority 2023, published 2025)

Key:
Assay type in all cases: biochemical
MYC = test: In vitro transcription-translation (IVTT) assay, MYC reporter; conditions: HeLa S3 lysate, 2 hrs at 30° C.
Description: (§1) All reporter constructs have been cloned into the pT7CFE1-CHis plasmid (ThermoFisher #88860) using Gibson assembly procedures (NEB #E2611L). The parental pT7CFE1-CHis plasmid contains an EMCV IRES at the 5′UTR for translation initiation, a multiple-cloning site (MCS) for gene insertion, an optional C-terminal His-epitope tag, and polyA sequence in the 3′UTR to regulate mRNA stability. All reporters are designed to be inserted at the MCS to include a red fluorescent protein (mCherry), P2A self-cleaving peptide which releases the preceding mCherry protein product, and a fusion open reading frame containing a 3×FLAG epitope, a peptide sequence of interest (TEST), and green fluorescent protein (sfGFP).
(§2) Construct Plasmid Preparation: All plasmids are isolated from MACH1 cells (ThermoFisher) grown overnight in ampicillin-containing luria broth, and purified using ZymoPure Express Plasmid Midiprep Kit (Zymo Research). Constructs are sequenced verified and diluted to a working concentration of 110 ng/μL.
(§3) HeLa S3 Lysate Preparation: HeLa S3 cell pellets are acquired from Ipracell/Ipratech (Belgium) and shipped as 4 mL frozen cell pellets on dry ice for storage at −80° C. until use. The procedure for lysate preparation is as follows. Prepare 1× Lysis Buffer, cold and stored on ice:
(§4) Each preparation takes 8 cell pellets (4 ml packed volume each, approximately 1.0×10^9 cells per pellet). Thaw cell pellets from −80° C. on ice for 90 mins. Lay pellets horizontally on top of the ice and rotate every 30 mins to ensure even thawing. Once thawed, add 4 mL of cold lysis buffer to each pellet, and using a serological pipet, gently pipet up and down to break up clumps. Incubate resuspended cells in ice for an additional 30 mins (plunged into ice). During 30 min incubation, rinse and RNase-zap (Ambion) glass dounces (use loose pestle “A”), gently dry and place on ice until needed. Prepare RNase-free Eppendorf tubes for spinning and for batch storage. Add batch labels to 1.5-1.7 mL RNase-free microcentrifuge tubes (labeling scheme below). Each batch will have an extra 1.5-1.7 mL RNase-free microcentrifuge tube for 40 μL of lysate, label the top of this tube (labeling scheme below). After 30 min incubation, transfer all 8 mL of cell pellet to dounce. Cell lysis is complete after douncing 100 times. Aliquot cell lysis into 1.5-1.7 mL temporary-microcentrifuge tubes. Place tubes in centrifuge with “fins” out, and spin at 1,200×g for 5 mins. After the first spin use a 1 mL pipet to resuspend each tube and repeat spin. This acts as an additional lysis step, is more vigorous and increases lysate yield. During second spin get liquid N2 and a fresh conical tube on ice. After spin is complete, transfer supernatant (lysate) from microcentrifuge tubes into the 50 mL conical tube and keep on ice. Repeat steps 10-14 for all other cell pellets until completed. Once all cell lysate has been transferred to the 50 mL conical tube pipet to mix so the solution is homogenous. Transfer 1 mL of lysate into batch-labeled microcentrifuge tubes and flash freeze in liquid nitrogen. Be sure to pipet up and down to mix throughout transfer step. Place all tubes in the […] for long-term storage.
(§5) In vitro transcription-translation assay setup: Each assay includes a master mix containing lysate and shared components, a 96-well plate containing compound titrations for testing, a 96-well DNA plate with reporter constructs to be tested, 96-well skirted PCR plates, and 96-well flat-bottom, black, fluorescent assay plates. […]

CCND1 = test: In vitro transcription-translation (IVTT) assay, CCND1 reporter; conditions: HeLa S3 lysate, 2 hrs at 30° C.
Description: as §1, §2, §3, §4, §5

MCL-1 = test: In vitro transcription-translation (IVTT) assay, MCL-1 reporter; conditions: HeLa S3 lysate, sfGFP/mCherry ratio, 2 hrs at 30° C.
Description: as §1, §2, §3, §4, §5

[1] = IVTT assay, MYC reporter, normalized sfGFP/mCherry ratio, half-log dilutions 30 μM-0.1 μM

With `COc1ccc(C[C@H]2NC[C@H](O)[C@H]2OC(=O)NCc2cc(C(F)(F)F)[nH]n2)cc1` [Cmpd V187861] the IC50 (MYC; sfGFP/mCherry ratio) was over 30 µM, the IC50 (CCND1; sfGFP/mCherry ratio) was 20 to 30 µM and the IC50 (MCL-1) was under 10 µM.

`COc1ccc(C[C@H]2NC[C@H](O)[C@H]2OC(=O)NCCN[C@@H]2CCNC2)cc1` [V188073, (2R,3S,4S)-4-hydroxy-2-[(4-methoxyphenyl)methyl]pyrrolidin-3-yl N-{2-[(3R)-pyrrolidin-3-ylamino]ethyl}carbamate] gave an IC50 (MYC; sfGFP/mCherry ratio) of 10 to 20 µM, an IC50 (CCND1; sfGFP/mCherry ratio) of 20 to 30 µM and an IC50 (MCL-1) of 10 to 20 µM.

`O=C(NCC[C@H]1CCOC1)O[C@@H]1[C@@H](O)CN[C@@H]1Cc1ccc(-c2cncs2)cc1` [V193643, (2R,3S,4S)-4-hydroxy-2-(4-(thiazol-5-yl)benzyl)pyrrolidin-3-yl (2-((S)-tetrahydrofuran-3-yl)ethyl)carbamate] was tested, and the IC50 (MYC; [1]) was under 10 µM.

In the case of `O=C(NCCc1ccncc1)O[C@@H]1[C@@H](O)CN[C@@H]1Cc1ccc(-c2cn(Cc3cn[nH]c3)nn2)cc1` [V187948, (2R,3S,4S)-4-hydroxy-2-({4-[1-(1H-pyrazol-4-ylmethyl)-1,2,3-triazol-4-yl]phenyl}methyl)pyrrolidin-3-yl N-[2-(pyridin-4-yl)ethyl]carbamate], the IC50 (MYC; sfGFP/mCherry ratio) is reported as under 10 µM, the IC50 (CCND1; sfGFP/mCherry ratio) is reported as under 10 µM and the IC50 (MCL-1) is reported as under 10 µM.

`COc1ccc(C[C@H]2NC[C@H](O)[C@H]2OC(=O)NC[C@H]2CNC[C@@H]2O)cc1` [V188114, (2R,3S,4S)-4-hydroxy-2-[(4-methoxyphenyl)methyl]pyrrolidin-3-yl N-{[(3R,4R)-4-hydroxypyrrolidin-3-yl]methyl}carbamate] was tested, and the IC50 (MYC; sfGFP/mCherry ratio) was 20 to 30 µM, the IC50 (CCND1; sfGFP/mCherry ratio) was over 30 µM and the IC50 (MCL-1) was 10 to 20 µM.

Compound `O=C(NCCc1ccncc1)O[C@@H]1[C@@H](O)CN[C@@H]1Cc1ccc(-c2cn(-c3ccc(Cl)cc3)nn2)cc1` [V187950, (2R,3S,4S)-2-({4-[1-(4-chlorophenyl)-1,2,3-triazol-4-yl]phenyl}methyl)-4-hydroxypyrrolidin-3-yl N-[2-(pyridin-4-yl)ethyl]carbamate] has an IC50 (MYC; sfGFP/mCherry ratio) of 10 to 20 µM, an IC50 (CCND1; sfGFP/mCherry ratio) of under 10 µM and an IC50 (MCL-1) of under 10 µM.

Compound `COc1ccc(C[C@H]2NC[C@H](O)[C@H]2OC(=O)NCCC2CNC2)cc1` [V187600, (2R,3S,4S)-4-hydroxy-2-[(4-methoxyphenyl)methyl]pyrrolidin-3-yl N-[2-(azetidin-3-yl)ethyl]carbamate] has an IC50 (MYC; sfGFP/mCherry ratio) of 10 to 20 µM and an IC50 (MCL-1) of under 10 µM.

Work on `O=C(NCCc1cnoc1)O[C@@H]1[C@@H](O)CN[C@@H]1Cc1ccc(-c2cncs2)cc1` [V193647, (2R,3S,4S)-4-hydroxy-2-(4-(thiazol-5-yl)benzyl)pyrrolidin-3-yl (2-(isoxazol-4-yl)ethyl)carbamate] yielded an IC50 (MYC; [1]) of under 10 µM.

Work on `O=C(NCC[C@@H]1CCOC1)O[C@@H]1[C@@H](O)CN[C@@H]1Cc1ccc(-c2cncs2)cc1` [V193642, (2R,3S,4S)-4-hydroxy-2-(4-(thiazol-5-yl)benzyl)pyrrolidin-3-yl (2-((R)-tetrahydrofuran-3-yl)ethyl)carbamate] yielded an IC50 (MYC; [1]) of under 10 µM.

In the case of `COc1ccc(C[C@H]2NC[C@H](O)[C@H]2OC(=O)NCc2cnc(N)nc2)cc1` [V188037, (2R,3S,4S)-4-hydroxy-2-[(4-methoxyphenyl)methyl]pyrrolidin-3-yl N-[(2-aminopyrimidin-5-yl)methyl]carbamate], the IC50 (MYC; sfGFP/mCherry ratio) is reported as under 10 µM, the IC50 (CCND1; sfGFP/mCherry ratio) is reported as under 10 µM and the IC50 (MCL-1) is reported as under 10 µM.

`COc1ccc(C[C@H]2NC[C@H](O)[C@H]2OC(=O)NCCNc2ccccn2)cc1` [V188059, (2R,3S,4S)-4-hydroxy-2-[(4-methoxyphenyl)methyl]pyrrolidin-3-yl N-[2-(pyridin-2-ylamino)ethyl]carbamate] showed an IC50 (MYC; sfGFP/mCherry ratio) of 10 to 20 µM, an IC50 (CCND1; sfGFP/mCherry ratio) of 10 to 20 µM and an IC50 (MCL-1) of 10 to 20 µM.

For `COc1ccc(C[C@H]2NC[C@H](O)[C@H]2OC(=O)NCCNc2ncccn2)cc1` [V188058], the IC50 (MYC; sfGFP/mCherry ratio) was over 30 µM, the IC50 (CCND1; sfGFP/mCherry ratio) was over 30 µM and the IC50 (MCL-1) was over 30 µM.

Work on `O=C(NCC[C@H]1CCCO1)O[C@@H]1[C@@H](O)CN[C@@H]1Cc1ccc(-c2cncs2)cc1` [V193641, (2R,3S,4S)-4-hydroxy-2-(4-(thiazol-5-yl)benzyl)pyrrolidin-3-yl (2-((R)-tetrahydrofuran-2-yl)ethyl)carbamate] yielded an IC50 (MYC; [1]) of under 10 µM.

`COc1ccc(C[C@H]2NC[C@H](O)[C@H]2OC(=O)NC[C@@H]2CNC[C@H]2O)cc1` [V188093, (2R,3S,4S)-4-hydroxy-2-[(4-methoxyphenyl)methyl]pyrrolidin-3-yl N-{[(3S,4S)-4-hydroxypyrrolidin-3-yl]methyl}carbamate] was tested, and the IC50 (MYC; sfGFP/mCherry ratio) was 20 to 30 µM and the IC50 (CCND1; sfGFP/mCherry ratio) was over 30 µM.

`O=C(NCC[C@H]1C[C@H](O)C1)O[C@@H]1[C@@H](O)CN[C@@H]1Cc1ccc(-c2cncs2)cc1` [V193645, (2R,3S,4S)-4-hydroxy-2-(4-(thiazol-5-yl)benzyl)pyrrolidin-3-yl (2-((1r,3R)-3-hydroxycyclobutyl)ethyl)carbamate] gave an IC50 (MYC; [1]) of under 10 µM.

Compound `COc1ccc(C[C@H]2NC[C@H](O)[C@H]2OC(=O)NC[C@H]2CNC[C@H]2O)cc1` [V188115, (2R,3S,4S)-4-hydroxy-2-[(4-methoxyphenyl)methyl]pyrrolidin-3-yl N-{[(3R,4S)-4-hydroxypyrrolidin-3-yl]methyl}carbamate] has an IC50 (MYC; sfGFP/mCherry ratio) of over 30 µM, an IC50 (CCND1; sfGFP/mCherry ratio) of over 30 µM and an IC50 (MCL-1) of 10 to 20 µM.

`COc1ccc(C[C@H]2NC[C@H](O)[C@H]2OC(=O)NC[C@@H]2CCN(C)C2)cc1` [V188109, (2R,3S,4S)-4-hydroxy-2-[(4-methoxyphenyl)methyl]pyrrolidin-3-yl N-{[(3S)-1-methylpyrrolidin-3-yl]methyl}carbamate] was tested, and the IC50 (MYC; sfGFP/mCherry ratio) was 10 to 20 µM and the IC50 (CCND1; sfGFP/mCherry ratio) was over 30 µM.

In the case of `COc1ccc(C[C@H]2NC[C@H](O)[C@H]2OC(=O)NCc2ccc(B(O)O)cc2)cc1` [V188106], the IC50 (MYC; sfGFP/mCherry ratio) is reported as under 10 µM, the IC50 (CCND1; sfGFP/mCherry ratio) is reported as under 10 µM and the IC50 (MCL-1) is reported as under 10 µM.

In the case of `COc1ccc(C[C@H]2NC[C@H](O)[C@H]2OC(=O)NCC2CNC2)cc1` [V187599, (2R,3S,4S)-4-hydroxy-2-[(4-methoxyphenyl)methyl]pyrrolidin-3-yl N-(azetidin-3-ylmethyl)carbamate], the IC50 (MYC; sfGFP/mCherry ratio) is reported as over 30 µM and the IC50 (MCL-1) is reported as 10 to 20 µM.

`COc1ccc(C[C@H]2NC[C@H](O)[C@H]2OC(=O)NCCn2cnc3ccccc32)cc1` [V188090, (2R,3S,4S)-4-hydroxy-2-[(4-methoxyphenyl)methyl]pyrrolidin-3-yl N-[2-(1,3-benzodiazol-1-yl)ethyl]carbamate] gave an IC50 (MYC; sfGFP/mCherry ratio) of over 30 µM and an IC50 (CCND1; sfGFP/mCherry ratio) of over 30 µM.

Compound `CNC(=O)O[C@@H]1[C@@H](O)CN[C@@H]1Cc1ccc(-c2cn(-c3cc4ccc(O)cc4oc3=O)nn2)cc1` [V193432, (2R,3S,4S)-4-hydroxy-2-(4-(1-(7-hydroxy-2-oxo-2H-chromen-3-yl)-1H-1,2,3-triazol-4-yl)benzyl)pyrrolidin-3-yl methylcarbamate] has an IC50 (MYC; [1]) of under 10 µM.

Compound `[H]/N=C(/N)c1cccc(CNC(=O)O[C@@H]2[C@@H](O)CN[C@@H]2Cc2ccc(OC)cc2)c1` [Cmpd V187989] has an IC50 (CCND1; sfGFP/mCherry ratio) of under 10 µM and an IC50 (MCL-1) of under 10 µM.

For `CC(C)CCNC(=O)O[C@@H]1[C@@H](O)CN[C@@H]1Cc1ccc(-c2cncs2)cc1` [V193648, (2R,3S,4S)-4-hydroxy-2-(4-(thiazol-5-yl)benzyl)pyrrolidin-3-yl isopentylcarbamate], the IC50 (MYC; [1]) was under 10 µM.

In the case of `O=C(NCCc1cn[nH]c1)O[C@@H]1[C@@H](O)CN[C@@H]1Cc1ccc(-c2cncs2)cc1` [V193646, (2R,3S,4S)-4-hydroxy-2-(4-(thiazol-5-yl)benzyl)pyrrolidin-3-yl (2-(1H-pyrazol-4-yl)ethyl)carbamate], the IC50 (MYC; [1]) is reported as under 10 µM.

For `COc1ccc(C[C@H]2NC[C@H](O)[C@H]2OC(=O)N[C@H](C)c2ccccc2)cc1` [V191970, (2R,3S,4S)-4-hydroxy-2-[(4-methoxyphenyl)methyl]pyrrolidin-3-yl N-[(1R)-1-phenylethyl]carbamate], the IC50 (MYC; [1]) was over 30 µM and the IC50 (CCND1; IVTT) was over 30 µM.

Work on `O=C(NCC[C@H]1C[C@@H](O)C1)O[C@@H]1[C@@H](O)CN[C@@H]1Cc1ccc(-c2cncs2)cc1` [V193644, (2R,3S,4S)-4-hydroxy-2-(4-(thiazol-5-yl)benzyl)pyrrolidin-3-yl (2-((1s,3S)-3-hydroxycyclobutyl)ethyl)carbamate] yielded an IC50 (MYC; [1]) of under 10 µM.
